Columns and labels:
[1] = test system: HBV; test: qPCR test in the HBV in vitro test (HBV DNA in HepG2.2.15 cells); format: cell-based; conditions: Hepatitis B virus, 192 h, HBV DNA in HepG2.2.15 culture medium, day 8, read-out: Half maximal inhibitory concentration (EC50) of HBV
Method: To evaluate the inhibitory effect of the compound on HBV by detecting content of HBV DNA in HepG2.2.15 cells in a real-time qPCR test, with EC50 of the compound as an indicator.
3.1. HepG2.2.15 cells (4×10^4 cells/well) were inoculated into a 96-well plate and cultured at 37° C. in 5% CO2 overnight. 3.2. On day 2, the compound was 3-fold diluted in gradient for a total of 8 dilution gradients. The compound at different concentrations was added into the culture wells in duplicate. The final concentration of DMSO in the culture medium was 1%. 1 μM GLS4 was used as a 100% inhibition control (the structure of GLS4 disclosed in WO2008154817A1 is as follows:
1% DMSO was used as a 0% inhibition control. 3.3. On day 5, the culture medium was replaced with a fresh culture medium containing the compound. 3.4. On day 8, the culture medium in the culture wells was collected, and the high-throughput DNA purification kit (Qiagen-51162) was used to extract DNA. For specific steps, refer to the product manual.
3.6. Each well of the 96-well PCR plate was added with 15 μL of the reaction mixture, and then with 10 μL of sample DNA or HBV DNA standard. 3.7. The reaction conditions for PCR: heating at 95° C. for 10 min, degeneration at 95° C. for 15 s, and extension at 60° C. for 1 min, with a total of 40 cycles.
3.8.1. Calculation of the inhibition percentage: % Inh.=[1−(DNA copy number in the sample−DNA copy number in 1 μM GLS4)/(DNA copy number in the DMSO control−DNA copy number in 1 μM GLS4)]×100. 3.8.2. Calculation of EC50: half maximal inhibitory concentration (EC50) of the compound for HBV was calculated using GraphPad Prism software. 3.8.3.

[2] = test system: hepatitis B virus; test: In vivo efficacy in the HDI/HBV mouse model; conditions: HDI/HBV mice
From the text: Experimental objective: to assay the efficacy of the compound against hepatitis B virus in mice through the HDI/HBV mouse model.
Preparation of compound: the solvent was an aqueous solution containing 10% polyethylene glycol-15 hydroxystearate; a certain amount of the test compounds 18 and 25 were separately dissolved in an aqueous solution containing 10% polyethylene glycol-15 hydroxystearate, and the mixtures were vortexed and sonicated to prepare uniform suspensions. The suspensions were stored at 4° C. for later use.
High pressure injection of the HBV plasmid DNA solution via the tail vein of mice: the day of plasmid injection was day 0, the day after injection was day 1, and so on. On day 0, all mice were injected with normal saline containing 10 μg of plasmid DNA via their tail veins at a dose of 8% of body weight, and the injection was completed within 5 s.
Administration: all mice were administered intragastrically twice a day (8/16 h interval) on day 1-6 and once on day 7. All mice were euthanized in the afternoon on day 7. The body weight of the mice, which was monitored every day, remained stable throughout the experiment.
Sample collection: blood was collected from the submandibular vein 4 h after the first administration in the morning on days 1, 3, and 5. All blood samples were collected in K2-EDTA anticoagulation tubes, and centrifuged for 10 min at 4° C., 7000 g to prepare about 40 μL of plasma. All mice were euthanized by CO2 four hours after administration in the morning on day 7. Blood was collected from the heart, and the plasma preparation method was the same as above. Two liver tissues were collected with 70-100 mg each, and quick-frozen by liquid nitrogen. After all samples were collected, they were stored in a −80° C. refrigerator for HBV DNA content detection.
Sample analysis: all plasma samples and liver samples were detected for HBV DNA by qPCR.

[3] = target: hERG potassium channel (Homo sapiens, UniProt Q12809); test: Inhibition test of the hERG potassium channel (automatic patch clamp, CHO-hERG cells); format: cell-based; conditions: QPatch whole-cell patch clamp, room temperature
Sequence of hERG potassium channel (Q12809 whole entry): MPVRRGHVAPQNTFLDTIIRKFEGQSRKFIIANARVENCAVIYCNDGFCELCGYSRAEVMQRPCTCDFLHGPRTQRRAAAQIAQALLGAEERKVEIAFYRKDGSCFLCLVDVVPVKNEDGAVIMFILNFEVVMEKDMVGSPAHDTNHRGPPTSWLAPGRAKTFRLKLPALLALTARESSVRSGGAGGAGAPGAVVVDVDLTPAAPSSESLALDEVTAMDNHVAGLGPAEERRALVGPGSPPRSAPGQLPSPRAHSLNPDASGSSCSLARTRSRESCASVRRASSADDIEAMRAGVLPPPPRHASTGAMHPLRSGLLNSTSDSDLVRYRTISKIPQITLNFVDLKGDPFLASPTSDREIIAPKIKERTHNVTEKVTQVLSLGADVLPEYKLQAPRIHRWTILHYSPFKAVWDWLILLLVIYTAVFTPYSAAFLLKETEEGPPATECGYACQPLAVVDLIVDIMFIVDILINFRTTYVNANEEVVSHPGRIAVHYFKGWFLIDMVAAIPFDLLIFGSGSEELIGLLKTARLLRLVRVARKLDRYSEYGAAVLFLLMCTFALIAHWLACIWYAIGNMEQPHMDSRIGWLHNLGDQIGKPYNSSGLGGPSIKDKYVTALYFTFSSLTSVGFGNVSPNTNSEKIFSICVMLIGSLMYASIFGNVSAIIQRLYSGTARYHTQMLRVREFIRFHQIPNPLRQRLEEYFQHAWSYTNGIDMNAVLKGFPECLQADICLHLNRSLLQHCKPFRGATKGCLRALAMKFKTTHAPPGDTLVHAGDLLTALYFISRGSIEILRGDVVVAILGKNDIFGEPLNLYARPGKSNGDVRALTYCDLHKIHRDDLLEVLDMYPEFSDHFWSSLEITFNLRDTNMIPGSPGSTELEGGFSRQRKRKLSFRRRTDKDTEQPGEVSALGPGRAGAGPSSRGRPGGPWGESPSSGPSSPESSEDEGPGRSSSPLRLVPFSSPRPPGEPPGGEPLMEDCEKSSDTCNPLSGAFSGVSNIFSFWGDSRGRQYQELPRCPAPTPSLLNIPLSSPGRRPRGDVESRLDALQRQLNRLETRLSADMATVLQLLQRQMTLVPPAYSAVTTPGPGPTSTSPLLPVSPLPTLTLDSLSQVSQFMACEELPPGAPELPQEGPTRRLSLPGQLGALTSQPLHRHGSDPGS
Method: To assay the effect of the compound disclosed herein on hERG potassium channel by using automatic patch-clamp method.
The cells stably expressing the hERG potassium channel used in the experiment were CHO-hERE from Aviva Biosciences. CHO-hERG was cultured at 37° C. in 5% CO2.
The CHO-hERG cells used in the experiment were cultured for at least two days, and the cell density reached 75% or more. Before the experiment, the cells were digested with TrypLE, and then the collected cells were resuspended in extracellular fluid.
The extracellular fluid needed to be prepared once a month. The intracellular fluid must be frozen in aliquots at −20° C.
The test compound and its positive control amitriptyline were dissolved in DMSO to obtain a stock solution at a certain concentration. […]
With a holding potential of −80 mv, a voltage stimulation of −50 my was applied for 80 ms to record the cell leakage current value; then hERG channel was opened by a depolarization to +20 my for 4800 ms and hERG tail current was elicited by a repolarization to −50 my for 5000 ms and recorded; and finally, the voltage was restored to the holding potential of −80 my and maintained for 3100 ms. […]
In each complete current recording, the inhibition percentage of each compound at the action concentration could be calculated based on the percentage of peak current in the negative control. […]

[4] = 30 mg/kg intragastrically twice a day
[5] = 10 mg/kg intragastrically twice a day

| SMILES | EC50 [1] [nM] | HBV-DNA reduction Liver (day 7) [2, 4] | HBV-DNA reduction Plasma (day 5) [2, 4] | IC50 [3] [nM] | HBV-DNA reduction Liver (day 7) [2, 5] | HBV-DNA reduction Plasma (day 5) [2, 5] |
| --- | --- | --- | --- | --- | --- | --- |
| C[C@]1(NC(=O)C(=O)c2c(Cl)c(C(=O)Nc3ccc(F)c(F)c3)c3n2CCC3)CC[C@H](CC(=O)O)CC1 [Compound 18] | 11 | 1.99 Δ Log10 copies/100 ng | 2.84 Δ Log10 copies/μL | > 40000 | – | – |
| C[C@]1(NC(=O)C(=O)c2c(Cl)c(C(=O)Nc3cc(F)c(F)c(F)c3)c3n2CCC3)CC[C@H](CC(=O)O)CC1 [Compound 25] | 4 | 2.36 Δ Log10 copies/100 ng | 3.57 Δ Log10 copies/μL | > 40000 | 0.94 Δ Log10 copies/100 ng | 2.0 Δ Log10 copies/μL |

From patent publication US20220204510A1, “2,3-DIHYDRO-1H-PYRROLIZINE-7-FORMAMIDE DERIVATIVE AND APPLICATION THEREOF” (CHIA TAI TIANQING PHARMACEUTICAL GROUP CO., LTD., priority 2018, published 2022)
